Measured values taken from ChEMBL document CHEMBL5126633, “Developing HDAC4-Selective Protein Degraders To Investigate the Role of HDAC4 in Huntington's Disease Pathology” (J Med Chem, 2022).
In brackets after ≈: the same amount, converted by molar mass. Activity calls are given as the source filed them. The calls are words filed in the database; no cut-off is given here.

Assays:
[1] = Kinetic aqueous solubility of the compound in PBS buffer at pH 7.4 incubated for 2 hrs under shaking condition by LC-UV analysis; type: physicochemical; details: read-out: Kinetic_solubility
Histone deacetylase 9 = Histone deacetylase 9 (Homo sapiens, UniProt Q9UKV0)
Histone deacetylase 4 = Histone deacetylase 4 (Homo sapiens, UniProt P56524); test: Inhibition of recombinant HDAC4 (unknown origin) using Boc-Lys(TFA)-AMC as substrate by fluorescence based plate reader assay
Homo sapiens [2] = species on record: Homo sapiens; test: Selectivity ratio of IC50 for inhibition of HDAC4 (unknown origin) to IC50 for inhibition of HDAC7 (unknown origin)
[3] = Inhibition of class 2a HDAC in human Jurkat E6.1 cells using Boc-Lys(TFA)-AMC as substrate incubated for 24 hrs by plate reader assay; type: cell-based; details: Jurkat E6.1, 24 h
Homo sapiens [4] = species on record: Homo sapiens; test: Selectivity ratio of IC50 for inhibition of HDAC4 (unknown origin) to IC50 for inhibition of HDAC9 (unknown origin)
[5] = target: Class 1 histone deacetylase (Homo sapiens, UniProt Q13547+O15379+Q92769+Q9BY41); test: Inhibition of class 1 HDAC in human Jurkat E6.1 cells using Boc-Lys(Ac)-AMC as substrate incubated for 24 hrs by plate reader assay; type: cell-based
[6] = target: T1, von Hippel-Lindau disease tumor suppressor/Histone deacetylase 4 (Homo sapiens, UniProt P40337+P56524); test: Protac activity at VHL/HDAC4 in human Jurkat E6.1 cells assessed as induction of HDAC4 degradation incubated for 24 hrs by immunoblotting analysis; type: cell-based
Histone deacetylase 7 = target: T2, Histone deacetylase 7 (Homo sapiens, UniProt Q8WUI4); test: Inhibition of recombinant HDAC7 (unknown origin) using Boc-Lys(TFA)-AMC as substrate by fluorescence based plate reader assay
T2 sequence (Q8WUI4 whole entry): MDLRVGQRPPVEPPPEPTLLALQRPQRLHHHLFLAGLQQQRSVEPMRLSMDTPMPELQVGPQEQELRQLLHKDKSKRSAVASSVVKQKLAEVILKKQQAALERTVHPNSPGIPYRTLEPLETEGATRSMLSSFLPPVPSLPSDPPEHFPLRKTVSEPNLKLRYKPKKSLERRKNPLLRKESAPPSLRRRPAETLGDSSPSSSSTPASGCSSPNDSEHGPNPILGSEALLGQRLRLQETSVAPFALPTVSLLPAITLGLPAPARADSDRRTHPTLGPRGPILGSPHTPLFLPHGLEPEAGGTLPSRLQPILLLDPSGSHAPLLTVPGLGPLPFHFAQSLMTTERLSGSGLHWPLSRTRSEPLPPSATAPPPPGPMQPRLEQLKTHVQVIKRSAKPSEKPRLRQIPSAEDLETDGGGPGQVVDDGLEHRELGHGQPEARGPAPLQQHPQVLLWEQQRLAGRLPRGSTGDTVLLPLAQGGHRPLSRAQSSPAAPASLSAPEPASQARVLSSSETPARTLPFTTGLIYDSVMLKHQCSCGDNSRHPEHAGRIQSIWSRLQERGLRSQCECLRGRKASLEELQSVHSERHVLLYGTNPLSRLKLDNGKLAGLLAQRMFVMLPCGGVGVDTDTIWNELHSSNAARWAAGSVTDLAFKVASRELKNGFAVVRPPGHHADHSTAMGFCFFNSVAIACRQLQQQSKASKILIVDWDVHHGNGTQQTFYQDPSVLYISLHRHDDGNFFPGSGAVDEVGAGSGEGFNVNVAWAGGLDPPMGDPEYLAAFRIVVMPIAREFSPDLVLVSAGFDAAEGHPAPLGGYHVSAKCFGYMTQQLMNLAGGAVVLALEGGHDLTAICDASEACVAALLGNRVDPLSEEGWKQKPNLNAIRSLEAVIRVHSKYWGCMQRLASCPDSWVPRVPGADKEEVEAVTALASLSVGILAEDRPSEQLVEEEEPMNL

[7] = target: T1, von Hippel-Lindau disease tumor suppressor/Histone deacetylase 4; test: Protac activity at VHL/HDAC4 in human Jurkat E6.1 cells assessed as induction of HDAC4 degradation incubated for 24 hrs by ELISA-based MSD electrochemiluminescence assay; type: cell-based
[8] = target: T3, von Hippel-Lindau disease tumor suppressor/Histone deacetylase 4 (Homo sapiens) (UniProt P56524+P40337); test: Protac activity at VHL/HDAC4 in human Jurkat E6.1 cells assessed as induction of HDAC4 degradation by measuring maximum degradation at 10 uM incubated for 24 hrs by ELISA-based MSD electrochemiluminescence assay relative to control; type: cell-based
Homo sapiens [9] = species on record: Homo sapiens; test: Selectivity ratio of IC50 for inhibition of HDAC4 (unknown origin) to IC50 for inhibition of HDAC5 (unknown origin)
Histone deacetylase 5 = Histone deacetylase 5 (Homo sapiens, UniProt Q9UQL6); test: Inhibition of recombinant HDAC5 (unknown origin) using Boc-Lys(TFA)-AMC as substrate by fluorescence based plate reader assay
[10] = target: T3, von Hippel-Lindau disease tumor suppressor/Histone deacetylase 4 (Homo sapiens); test: Protac activity at VHL/HDAC4 in human Jurkat E6.1 cells assessed as induction of HDAC4 degradation at 1 uM incubated for 6 hrs by immunoblotting analysis; type: cell-based

T3 sequence (P40337 whole entry, looked up): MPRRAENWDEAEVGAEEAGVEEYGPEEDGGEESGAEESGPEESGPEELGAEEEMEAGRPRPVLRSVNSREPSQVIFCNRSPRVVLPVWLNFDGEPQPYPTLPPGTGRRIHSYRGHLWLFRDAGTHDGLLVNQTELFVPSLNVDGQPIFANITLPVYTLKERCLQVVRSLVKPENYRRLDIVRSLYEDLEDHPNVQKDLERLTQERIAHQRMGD
T3 sequence (P56524 whole entry, looked up): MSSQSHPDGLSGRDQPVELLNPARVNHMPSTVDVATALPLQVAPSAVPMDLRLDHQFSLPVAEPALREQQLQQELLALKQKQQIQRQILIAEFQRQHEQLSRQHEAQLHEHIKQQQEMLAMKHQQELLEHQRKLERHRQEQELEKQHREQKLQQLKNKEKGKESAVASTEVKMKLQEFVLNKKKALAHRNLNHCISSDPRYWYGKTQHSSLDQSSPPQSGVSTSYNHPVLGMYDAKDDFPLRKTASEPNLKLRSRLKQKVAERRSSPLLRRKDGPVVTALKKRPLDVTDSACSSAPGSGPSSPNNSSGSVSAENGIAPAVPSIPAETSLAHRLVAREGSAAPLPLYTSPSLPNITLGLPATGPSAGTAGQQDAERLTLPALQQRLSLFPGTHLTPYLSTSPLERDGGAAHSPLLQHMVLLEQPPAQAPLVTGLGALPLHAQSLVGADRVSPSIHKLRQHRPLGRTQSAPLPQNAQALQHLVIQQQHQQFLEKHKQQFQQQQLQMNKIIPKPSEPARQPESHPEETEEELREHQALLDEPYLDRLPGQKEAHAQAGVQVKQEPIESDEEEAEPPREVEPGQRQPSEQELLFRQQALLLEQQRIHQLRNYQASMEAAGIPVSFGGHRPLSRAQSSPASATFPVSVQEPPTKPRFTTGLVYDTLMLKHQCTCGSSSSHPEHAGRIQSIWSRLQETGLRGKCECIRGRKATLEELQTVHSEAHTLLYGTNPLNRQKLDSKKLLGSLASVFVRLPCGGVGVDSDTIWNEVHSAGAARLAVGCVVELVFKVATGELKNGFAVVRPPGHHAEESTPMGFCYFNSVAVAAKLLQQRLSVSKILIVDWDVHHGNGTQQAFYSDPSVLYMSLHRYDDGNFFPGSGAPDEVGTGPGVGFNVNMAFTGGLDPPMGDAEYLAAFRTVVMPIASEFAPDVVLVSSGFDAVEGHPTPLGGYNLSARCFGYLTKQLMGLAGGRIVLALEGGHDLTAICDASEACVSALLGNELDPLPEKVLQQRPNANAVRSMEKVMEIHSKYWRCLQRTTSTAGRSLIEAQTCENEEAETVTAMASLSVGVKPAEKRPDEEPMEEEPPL
T1 sequence (P56524 whole entry): as the sequence (P56524 whole entry, looked up) above
T1 sequence (P40337 whole entry): as the sequence (P40337 whole entry, looked up) above
Sequence of Histone deacetylase 4 (P56524 whole entry): as the sequence (P56524 whole entry, looked up) above
Sequence of Histone deacetylase 9 (Q9UKV0 whole entry): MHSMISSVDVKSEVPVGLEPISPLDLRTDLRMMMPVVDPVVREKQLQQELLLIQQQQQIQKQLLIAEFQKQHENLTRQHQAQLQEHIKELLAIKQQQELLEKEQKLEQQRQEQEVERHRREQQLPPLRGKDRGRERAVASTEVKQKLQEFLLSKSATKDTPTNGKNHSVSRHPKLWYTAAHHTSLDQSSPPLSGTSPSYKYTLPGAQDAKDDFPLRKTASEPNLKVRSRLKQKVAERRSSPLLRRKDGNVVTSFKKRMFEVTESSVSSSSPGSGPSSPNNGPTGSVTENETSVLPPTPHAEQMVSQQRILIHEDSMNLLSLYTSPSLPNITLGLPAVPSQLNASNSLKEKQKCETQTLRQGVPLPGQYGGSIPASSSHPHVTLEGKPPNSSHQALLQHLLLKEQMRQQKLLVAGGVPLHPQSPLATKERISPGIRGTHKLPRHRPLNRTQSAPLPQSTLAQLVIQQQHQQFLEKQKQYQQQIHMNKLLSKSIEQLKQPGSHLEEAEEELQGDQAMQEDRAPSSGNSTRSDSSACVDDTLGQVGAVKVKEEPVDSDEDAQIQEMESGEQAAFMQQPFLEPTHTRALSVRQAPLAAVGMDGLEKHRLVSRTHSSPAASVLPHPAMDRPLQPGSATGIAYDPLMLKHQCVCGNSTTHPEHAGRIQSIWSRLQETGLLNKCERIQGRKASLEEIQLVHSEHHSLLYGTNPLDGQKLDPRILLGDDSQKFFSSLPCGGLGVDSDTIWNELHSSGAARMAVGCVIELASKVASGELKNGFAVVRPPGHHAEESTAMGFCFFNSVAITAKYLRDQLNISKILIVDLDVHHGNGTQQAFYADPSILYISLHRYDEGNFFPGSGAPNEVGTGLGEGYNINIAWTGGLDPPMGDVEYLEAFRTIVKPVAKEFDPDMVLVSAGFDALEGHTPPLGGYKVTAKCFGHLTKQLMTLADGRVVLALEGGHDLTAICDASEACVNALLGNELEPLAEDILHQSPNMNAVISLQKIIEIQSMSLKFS
Sequence of Histone deacetylase 5 (Q9UQL6 whole entry): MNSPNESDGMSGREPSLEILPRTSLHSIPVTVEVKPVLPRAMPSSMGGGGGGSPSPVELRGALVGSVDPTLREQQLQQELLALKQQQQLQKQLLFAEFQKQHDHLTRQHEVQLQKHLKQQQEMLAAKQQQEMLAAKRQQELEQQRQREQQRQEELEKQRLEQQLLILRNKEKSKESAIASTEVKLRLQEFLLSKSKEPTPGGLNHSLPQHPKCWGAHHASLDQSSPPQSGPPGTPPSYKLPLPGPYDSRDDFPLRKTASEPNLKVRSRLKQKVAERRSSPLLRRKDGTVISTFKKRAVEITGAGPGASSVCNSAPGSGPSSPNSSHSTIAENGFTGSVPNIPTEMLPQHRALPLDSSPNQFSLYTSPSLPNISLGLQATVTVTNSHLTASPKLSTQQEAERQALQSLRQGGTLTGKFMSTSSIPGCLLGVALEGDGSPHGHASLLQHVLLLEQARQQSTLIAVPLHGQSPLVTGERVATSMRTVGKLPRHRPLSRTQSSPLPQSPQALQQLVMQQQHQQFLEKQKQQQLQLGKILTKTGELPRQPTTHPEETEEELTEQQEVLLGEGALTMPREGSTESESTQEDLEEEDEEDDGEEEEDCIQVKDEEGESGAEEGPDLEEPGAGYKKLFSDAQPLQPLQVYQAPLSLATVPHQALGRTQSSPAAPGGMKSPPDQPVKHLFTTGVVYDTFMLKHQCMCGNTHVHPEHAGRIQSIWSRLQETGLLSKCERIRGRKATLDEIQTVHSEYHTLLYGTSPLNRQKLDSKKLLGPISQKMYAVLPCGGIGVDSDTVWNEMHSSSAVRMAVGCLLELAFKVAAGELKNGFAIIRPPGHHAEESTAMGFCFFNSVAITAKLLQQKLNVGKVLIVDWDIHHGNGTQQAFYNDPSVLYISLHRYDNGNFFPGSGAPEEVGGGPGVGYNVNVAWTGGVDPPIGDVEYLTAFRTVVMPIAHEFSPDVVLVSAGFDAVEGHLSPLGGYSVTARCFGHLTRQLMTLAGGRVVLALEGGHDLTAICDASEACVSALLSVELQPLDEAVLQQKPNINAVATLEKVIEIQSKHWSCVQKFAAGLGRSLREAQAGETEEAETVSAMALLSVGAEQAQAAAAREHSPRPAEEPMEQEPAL

Row | solubility kinetic at 2 h [1] | IC50 (Histone deacetylase 9) | IC50 (Histone deacetylase 4) | Ratio IC50 (Homo sapiens [2]) | IC50 [3] | Ratio IC50 (Homo sapiens [4]) | IC50 [5] | EC50 [6] | IC50 (Histone deacetylase 7) | EC50 [7] | Emax [8] | Ratio IC50 (Homo sapiens [9]) | IC50 (Histone deacetylase 5) | Activity [10] | SMILES
1 | 145 µM (≈ 57.8 µg/mL) | – | – | – | – | – | – | – | – | – | – | – | – | – | CCCN(CCC)C[C@@H](C)NC(=O)c1ccc(-c2noc(C(F)(F)F)n2)cc1
2 | 4.8 µM (≈ 5.04 µg/mL) | 420 nM | 1100 nM | 3 | 120 nM | 3 | > 5000 nM | 11 nM | 250 nM | 37 nM | 83% | 3 | 260 nM | Active | Cc1ncsc1-c1ccc(CNC(=O)[C@@H]2C[C@@H](O)CN2C(=O)[C@@H](NC(=O)COCCOCCOCCOCCOCC(F)(F)c2cnc(-c3ccc(C(C(=O)NO)c4ccccc4F)cc3)nc2)C(C)(C)C)cc1 (stereo partly specified)
3 | 4.8 µM (≈ 5.04 µg/mL) | – | 230 nM | – | 130 nM | – | > 5000 nM | – | – | > 10000 nM | 20% | – | – | – | Cc1ncsc1-c1ccc(CNC(=O)[C@@H]2C[C@H](O)CN2C(=O)[C@@H](NC(=O)COCCOCCOCCOCCOCC(F)(F)c2cnc(-c3ccc(C(C(=O)NO)c4ccccc4F)cc3)nc2)C(C)(C)C)cc1 (stereo partly specified)
4 | – | – | 150 nM | – | 180 nM | – | > 5000 nM | – | – | > 10000 nM | 50% | – | – | – | CCCN(CCCCOCCOCCOCCOCCOCC(=O)N[C@@H](C(=O)N1C[C@@H](O)C[C@@H]1C(=O)NCc1ccc(-c2scnc2C)cc1)C(C)(C)C)C[C@@H](C)NC(=O)c1ccc(-c2noc(C(F)(F)F)n2)cc1
